Earlier results, collected in patent US20100227313A1, “Methods and Compositions for Determining Altered Susceptibility of HIV-1 to Protease Inhibitor Treatment” (priority 2007, published 2010).

Test system: HIV protease
Conditions: 2006, cited from earlier work

CC(C)CN(C[C@@H](O)[C@H](Cc1ccccc1)NC(=O)O[C@H]1CCOC1)S(=O)(=O)c1ccc(N)cc1 [APV, amprenavir]
effect of I47A mutation on susceptibility (I47A, de Mendoza et al.): reduced susceptibility | effect of L33F mutation in protease on susceptibility (L33F, Kozal et al.): correlate with resistance
